Test results as given in ChEMBL document CHEMBL1131327, “Selective Pneumocystis carinii dihydrofolate reductase inhibitors: design, synthesis, and biological evaluation of new 2,4-diamino-5-substituted-furo[2,3-d]pyrimidines” (J Med Chem, 1998).

What was measured:
[1] = target: T1, Bifunctional dihydrofolate reductase-thymidylate synthase (Toxoplasma gondii, UniProt Q07422)
T1 sequence (Q07422 whole entry): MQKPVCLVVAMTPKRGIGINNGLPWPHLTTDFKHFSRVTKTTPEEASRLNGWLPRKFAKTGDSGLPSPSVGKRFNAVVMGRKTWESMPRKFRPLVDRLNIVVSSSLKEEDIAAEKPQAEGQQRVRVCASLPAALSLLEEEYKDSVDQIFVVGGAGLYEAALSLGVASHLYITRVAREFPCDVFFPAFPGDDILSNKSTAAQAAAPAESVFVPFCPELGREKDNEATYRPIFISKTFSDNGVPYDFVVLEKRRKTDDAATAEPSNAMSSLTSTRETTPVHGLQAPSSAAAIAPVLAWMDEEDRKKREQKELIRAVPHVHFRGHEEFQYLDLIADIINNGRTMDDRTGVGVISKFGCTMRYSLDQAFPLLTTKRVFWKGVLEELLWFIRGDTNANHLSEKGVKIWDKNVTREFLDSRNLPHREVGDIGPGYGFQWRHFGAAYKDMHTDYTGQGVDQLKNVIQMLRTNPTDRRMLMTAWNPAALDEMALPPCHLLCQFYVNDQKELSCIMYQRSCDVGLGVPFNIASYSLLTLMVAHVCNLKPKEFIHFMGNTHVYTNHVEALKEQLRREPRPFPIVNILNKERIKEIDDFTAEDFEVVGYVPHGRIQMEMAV
Description: Inhibitory activity against dihydrofolate reductase from Toxoplasma gondii

Dihydrofolate reductase [2] = target: T2, Dihydrofolate reductase (Pneumocystis carinii, UniProt P16184)
T2 sequence (P16184 whole entry): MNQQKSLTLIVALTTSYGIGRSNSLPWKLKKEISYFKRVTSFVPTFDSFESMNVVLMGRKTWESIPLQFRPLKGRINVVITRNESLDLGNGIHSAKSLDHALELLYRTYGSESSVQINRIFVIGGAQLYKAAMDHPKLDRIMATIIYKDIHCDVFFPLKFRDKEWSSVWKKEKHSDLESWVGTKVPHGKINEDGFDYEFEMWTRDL
Description: Inhibitory activity against dihydrofolate reductase from pneumocystis carinii

Dihydrofolate reductase [3] = target: T3, Dihydrofolate reductase (Rattus norvegicus, UniProt Q920D2)
T3 sequence (Q920D2 whole entry): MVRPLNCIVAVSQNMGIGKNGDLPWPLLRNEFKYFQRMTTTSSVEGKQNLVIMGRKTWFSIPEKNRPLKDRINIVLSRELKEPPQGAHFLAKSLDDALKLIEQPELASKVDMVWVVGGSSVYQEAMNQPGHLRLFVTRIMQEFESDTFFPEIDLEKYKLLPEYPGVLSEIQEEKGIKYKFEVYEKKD
Description: Inhibitory activity against dihydrofolate reductase from rat liver

IC50 (Dihydrofolate reductase [2]) [µM] | IC50 (Dihydrofolate reductase [3]) [µM] | Structure (SMILES) | IC50 [1] [µM]
> 27 | > 27 | COc1ccc(OC)c(N(C)Cc2coc3nc(N)nc(N)c23)c1 | > 27
 | 137 | Nc1nc(N)c2c(CNc3ccccc3-c3ccccc3)coc2n1 | 
> 31.3 | > 31.3 | COc1cccc(NCc2coc3nc(N)nc(N)c23)c1 | > 31.3
> 12 | > 12 | Nc1nc(N)c2c(CNc3ccccc3Oc3ccccc3)coc2n1 | > 12
 |  | Nc1nc(N)c2c(CNc3cc(Cl)ccc3Cl)coc2n1 | > 47
44.8 | > 27 | CN(Cc1coc2nc(N)nc(N)c12)c1ccc(Cl)c(Cl)c1 | > 27
284 |  | CN(Cc1coc2nc(N)nc(N)c12)c1cc(Cl)c(Cl)c(Cl)c1 | 
 |  | Nc1nc(N)c2c(CNc3ccc(Oc4ccccc4)cc3)coc2n1 | 32.4
14.8 | 14.6 | CN(Cc1coc2nc(N)nc(N)c12)c1ccc2ccccc2c1 | 

Structure (SMILES) | IC50 (Dihydrofolate reductase [2]) [µM] | IC50 (Dihydrofolate reductase [3]) [µM] | IC50 [1] [µM]
Nc1nc(N)c2c(CSc3ccccc3)coc2n1 | > 26 |  | > 26
Nc1nc(N)c2c(CNc3ccc4ccccc4c3)coc2n1 | 41 | 36.5 | 38
